The text below walks through data of ChEMBL document CHEMBL3880382, “TRH-like peptide derivatives as inhibitors of the TRH-degrading ectoenzyme” (2010).

Experiment [1] concerns Rattus norvegicus. Briefly: Behavioral effect in cannulated Wistar rat assessed as number of wet dog shakes at 10 mg/kg, ip measured every 5 mins for 30 secs during 40 mins observation period. It counts as functional.
Experiment [2] addresses T1, Thyrotropin-releasing hormone receptor (Rattus norvegicus, UniProt Q01717).
T1 sequence (Q01717 whole entry): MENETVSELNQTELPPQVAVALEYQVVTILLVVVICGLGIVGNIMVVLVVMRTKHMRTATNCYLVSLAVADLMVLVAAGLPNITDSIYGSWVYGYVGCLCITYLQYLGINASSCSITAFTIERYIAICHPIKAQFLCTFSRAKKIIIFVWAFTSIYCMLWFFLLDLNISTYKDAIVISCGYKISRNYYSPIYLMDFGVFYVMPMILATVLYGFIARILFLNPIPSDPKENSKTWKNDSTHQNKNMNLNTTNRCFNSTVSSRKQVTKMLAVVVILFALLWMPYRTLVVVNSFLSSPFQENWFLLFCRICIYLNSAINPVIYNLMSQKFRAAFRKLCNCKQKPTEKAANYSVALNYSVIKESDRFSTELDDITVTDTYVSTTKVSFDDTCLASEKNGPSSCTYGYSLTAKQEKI
Briefly: Displacement of [3H]-3MeHis-TRH from TRH receptor in Sprague-Dawley rat cortical membranes. A general note: Loss of bound radioactivity is the signal in a displacement assay; it reports binding, not function.

Experiment [3] has as its target T2, Thyrotropin-releasing hormone-degrading ectoenzyme (Homo sapiens, UniProt Q9UKU6).
T2 sequence (Q9UKU6 whole entry): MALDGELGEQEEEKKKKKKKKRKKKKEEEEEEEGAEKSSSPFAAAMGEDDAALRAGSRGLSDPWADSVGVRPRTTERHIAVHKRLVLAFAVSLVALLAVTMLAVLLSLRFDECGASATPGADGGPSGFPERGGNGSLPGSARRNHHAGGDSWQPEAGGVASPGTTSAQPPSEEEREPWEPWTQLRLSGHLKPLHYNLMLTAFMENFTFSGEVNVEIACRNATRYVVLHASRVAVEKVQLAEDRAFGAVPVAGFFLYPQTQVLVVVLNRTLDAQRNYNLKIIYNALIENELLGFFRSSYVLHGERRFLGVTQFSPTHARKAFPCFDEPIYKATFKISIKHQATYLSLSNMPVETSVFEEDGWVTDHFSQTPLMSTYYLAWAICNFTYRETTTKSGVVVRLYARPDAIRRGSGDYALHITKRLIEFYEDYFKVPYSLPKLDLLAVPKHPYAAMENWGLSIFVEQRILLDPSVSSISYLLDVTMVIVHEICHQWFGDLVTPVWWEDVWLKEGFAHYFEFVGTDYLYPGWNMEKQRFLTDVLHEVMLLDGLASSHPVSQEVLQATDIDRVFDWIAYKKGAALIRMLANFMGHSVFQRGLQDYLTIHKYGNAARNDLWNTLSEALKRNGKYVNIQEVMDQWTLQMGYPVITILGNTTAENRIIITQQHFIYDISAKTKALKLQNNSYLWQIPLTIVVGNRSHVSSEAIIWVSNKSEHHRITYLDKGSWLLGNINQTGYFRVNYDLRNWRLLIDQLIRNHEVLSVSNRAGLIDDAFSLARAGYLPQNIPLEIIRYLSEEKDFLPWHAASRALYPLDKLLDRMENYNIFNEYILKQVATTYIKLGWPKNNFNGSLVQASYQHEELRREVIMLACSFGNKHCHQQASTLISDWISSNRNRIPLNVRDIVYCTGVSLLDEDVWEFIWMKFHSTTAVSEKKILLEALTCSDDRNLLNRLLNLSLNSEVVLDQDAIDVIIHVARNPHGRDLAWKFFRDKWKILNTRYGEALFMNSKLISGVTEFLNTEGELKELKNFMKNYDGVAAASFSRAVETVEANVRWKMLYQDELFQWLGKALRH
In words: Competitive inhibition of TRH-DE (unknown origin).

Experiment [4] concerns the target Thyrotropin releasing hormone degrading enzyme (Sus scrofa, UniProt A0A287AP33). In words: Inhibition of pig brain TRH-DE using Glp-His-ProAMC as substrate by DPP-4-based continuous fluorometric method.
For experiment [5], the target named is T3, Thyrotropin releasing hormone degrading enzyme (Sus scrofa) (UniProt A0A287AP33). In words: Inhibition of pig brain TRH-DE at 1 uM using Glp-His-ProAMC as substrate by DPP-4-based continuous fluorometric method.
T3 sequence (A0A287AP33 as listed by the source): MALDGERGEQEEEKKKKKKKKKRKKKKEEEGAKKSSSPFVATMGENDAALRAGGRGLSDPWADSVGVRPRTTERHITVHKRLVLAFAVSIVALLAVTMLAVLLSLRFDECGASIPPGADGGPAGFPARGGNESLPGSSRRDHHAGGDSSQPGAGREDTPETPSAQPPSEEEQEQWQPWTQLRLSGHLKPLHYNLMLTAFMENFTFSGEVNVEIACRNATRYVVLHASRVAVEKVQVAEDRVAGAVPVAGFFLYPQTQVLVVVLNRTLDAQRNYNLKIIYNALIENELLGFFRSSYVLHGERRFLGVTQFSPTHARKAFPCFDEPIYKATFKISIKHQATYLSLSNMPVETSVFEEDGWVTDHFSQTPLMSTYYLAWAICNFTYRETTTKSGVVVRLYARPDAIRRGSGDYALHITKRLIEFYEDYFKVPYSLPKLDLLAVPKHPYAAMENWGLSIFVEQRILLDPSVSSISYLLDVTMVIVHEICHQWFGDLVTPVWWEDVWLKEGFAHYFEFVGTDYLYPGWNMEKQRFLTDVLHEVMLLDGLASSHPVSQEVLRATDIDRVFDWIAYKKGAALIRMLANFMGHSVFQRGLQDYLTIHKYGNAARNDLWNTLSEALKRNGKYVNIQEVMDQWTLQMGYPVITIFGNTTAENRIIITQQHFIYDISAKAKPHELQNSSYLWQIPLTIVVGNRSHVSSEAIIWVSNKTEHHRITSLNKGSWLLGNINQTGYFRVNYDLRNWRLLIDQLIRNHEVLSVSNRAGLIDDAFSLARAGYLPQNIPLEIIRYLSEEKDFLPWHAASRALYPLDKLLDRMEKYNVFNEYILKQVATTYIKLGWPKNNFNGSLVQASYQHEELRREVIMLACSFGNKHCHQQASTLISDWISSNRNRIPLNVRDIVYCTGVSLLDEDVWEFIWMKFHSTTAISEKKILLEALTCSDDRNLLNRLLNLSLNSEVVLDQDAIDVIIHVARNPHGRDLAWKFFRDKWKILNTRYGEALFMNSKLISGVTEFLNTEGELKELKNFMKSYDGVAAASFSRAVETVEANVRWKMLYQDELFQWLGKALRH
Experiment [6] concerns Rattus norvegicus. In words: In vivo inhibition of TRH-DE in cannulated Wistar rat assessed as increase in TRH-mediated wet dog shakes at 5 ug in 1 ul, icv followed by TRH addition measured after 30 mins relative to control. It counts as functional.
The test system of experiment [7] is Rattus norvegicus. In words: In vivo inhibition of TRH-DE in cannulated Wistar rat assessed as increase in TRH-mediated grooming at 10 mg/kg, ip measured every 5 mins for 30 secs during 40 mins observation period. The experiment is classed as functional, organism-based.
The test system of experiment [8] is Rattus norvegicus. In words: In vivo inhibition of TRH-DE in cannulated Wistar rat assessed as increase in TRH-mediated sniffing at 10 mg/kg, ip measured every 5 mins for 30 secs during 40 mins observation period. It counts as functional, organism-based.
The test system of experiment [9] is Rattus norvegicus. Briefly: In vivo inhibition of TRH-DE in cannulated Wistar rat assessed as increase in TRH-mediated chewing at 10 mg/kg, ip measured every 5 mins for 30 secs during 40 mins observation period. The experiment is classed as functional, organism-based.
Experiment [10] relates to Rattus norvegicus. Briefly: In vivo inhibition of TRH-DE in cannulated Wistar rat assessed as increase in TRH-mediated wet dog shakes at 10 mg/kg, ip measured for last 25 mins of the 40 mins observation period. The experiment is classed as functional, organism-based.
For experiment [11], the target named is T3, Thyrotropin releasing hormone degrading enzyme (Sus scrofa). Briefly: Reversible inhibition of pig brain TRH-DE using Glp-His-ProAMC as substrate at 1 uM preincubated for 75 mins by DPP-4-based continuous fluorometric method.

The source made the active and inactive calls. The calls are words filed in the database; no cut-off is given here. Non-standard residues stand in square brackets, D forms with d. Residues, ends and D or L forms follow the SMILES beside them. *: point of attachment. AMC = Cc1cc(=O)oc2cc(N*)ccc12; pGlu = O=C1CC[C@@H](C(=O)O)N1

Thyrotropin releasing hormone degrading enzyme, sequence (A0A287AP33 whole entry): as the sequence (A0A287AP33 as listed by the source) above

As a reminder, the Ki is a dissociation constant, usually derived from enzyme kinetics or from competition with a known ligand. Take `O=C(O)C(Cc1ccccc1)N[C@@H](Cc1cn(Cc2ccccc2)cn1)C(=O)Nc1ccc2ccccc2c1` (some centres not stated): the Activity in experiment [1] was 0. The inhibitory constant (Ki) in [2] was 0.0224 µM; in [3], 8 µM.

Usually inhibition stands for the drop in the measured response relative to a control, in per cent. `Cc1cc(=O)oc2cc(NC(=O)[C@@H]3CCCN3C(=O)[C@H](CC(N)=O)NC(=O)[C@@H]3CCC(=O)N3)ccc12` ([pGlu]-Asn-Pro-{AMC}): the inhibition constant Ki in experiment [4] was 0.41 to 0.97 µM; in experiment [2], 47.9 µM. The same compound yielded an inhibition in [5] of 50%. Further, in [6], the “fold change (FC)” value is 18. The inhibition result in [7], in experiment [8], in experiment [9], in [10] and in experiment [11] was “Active” in each case.
